Results as given in patent US20260201336A1, “REPROGRAMMED SMOOTH MUSCLE CELLS AND METHODS RELATED THERETO” (EMORY UNIVERSITY, priority 2022, published 2026).

Test system: human dermal fibroblasts (HDFs)
Experiment: qRT-PCR of HDFs treated with ATRA for four days
Assay type: cell-based
Method: Cell culture and maintenance. Human dermal fibroblasts (HDFs) were isolated from the dermis of human juvenile foreskin and expanded in Dulbecco's Modified Eagle's medium (DMEM) (Lonza, Basel, SWI) supplemented with 10% fetal bovine serum (FBS) (Sigma-Aldrich, St. Louis, MO), 1× Antibiotic-Antimycotic (Anti-Anti) (Gibco, Waltham, MA), 1× MEM Non-Essential Amino Acids (MEM NEAA) (Gibco, Waltham, MA), and 1× GlutaMAX Supplement (GlutaMAX) (Gibco, Waltham, MA) at 37° C. with 5% CO2. The Platinum-A (Plat-A) retroviral packaging cell line (Cell Biolabs, San Diego, CA) was maintained in the same medium without Anti-Anti and used for transfection at passages four to seven. HDFs and directly reprogrammed smooth muscle cells (rSMCs) were maintained in DMEM with low glucose (HyClone, Logan, UT) supplemented with 5% FBS, Anti-Anti, MEM NEAA, and GlutaMAX.
Generation of directly reprogrammed SMCs. For direct reprogramming of HDFs into contractile SMCs, HDFs were seeded at a density of 1.5×10^5 cells per ml in DMEM (Lonza) supplemented with 10% FBS (Sigma-Aldrich), Anti-Anti (Gibco), MEM NEAA (Gibco), and GlutaMAX (Gibco) at 37° C. with 5% CO2. The cells were infected overnight with filtered retroviral medium containing four μg per ml of polybrene (Sigma-Aldrich) with or without 0.4, 2, or 10 μM per liter of all-trans retinoic acid (ATRA) (Sigma-Aldrich), and the viral medium was replaced with DMEM/low glucose (HyClone) supplemented with 5% FBS, Anti-Anti, MEM NEAA, and GlutaMAX with or without ATRA for 24 hrs. The viral infection was repeated twice, and the cells were maintained in DMEM/low glucose containing 5% FBS with or without ATRA for the duration of culture.
[…] reverse transcriptase polymerase chain reaction (qRT-PCR). Total ribonucleic acid (RNA) was isolated from cells using the RNeasy Mini Kit (QIAGEN, Hilden, GE) or TRIsure (Bioline, Memphis, TN), according to the manufacturer's instructions. The extracted RNA was reverse transcribed with TaqMan Reverse Transcription Reagents (Applied Biosystems, Foster City, CA), according to the manufacturer's instructions. The synthesized cDNA was amplified with PowerUP SYBR Green Master Mix (Thermo Fisher Scientific, Waltham, MA), according to the manufacturer's instructions, and was subject to qRT-PCR with human or mouse specific primers, as shown in Table 1. Quantitative assessment of RNA levels was performed using a QuantStudio 3 96-well 0.2-ml real-time PCR system (Applied Biosystems). The relative messenger RNA (mRNA) expression was normalized to GAPDH.

[1] = ATRA-treated vs untreated HDFs, four days

In the case of `CC1=C(/C=C/C(C)=C/C=C/C(C)=C/C(=O)O)C(C)(C)CCC1` [ATRA, (2E,4E,6E,8E)-3,7-dimethyl-9-(2,6,6-trimethylcyclohexen-1-yl) nona-2,4,6,8-tetraenoic acid], the “expression of S100A4” value [1] is reported as “substantially reduced”, the “fold increase of SMC gene expression, CALD1” value [1] is reported as 1.1 fold and the “fold increase of SMC gene expression, MYH11” value [1] is reported as 6.1 fold. The “mRNA expression of STRA6 and the SMC genes” value [1] was “increased” and the “most effective concentration for induction of SMC gene expression” value (among the tested ATRA concentrations, HDFs) was 2 µM.
